Key:
Type in all cases: biochemical
HDAC3 = HDAC3 (Homo sapiens (Human), UniProt O15379); assay: HDAC enzyme assay, HDAC3
Experimental: Compounds for testing were diluted in DMSO to 50 fold the final concentration and a ten point three fold dilution series was made. The compounds were diluted in assay buffer (50 mM HEPES, pH 7.4, 100 mM KCl, 0.001% Tween-20, 0.05% BSA, 20 μM TCEP) to 6 fold their final concentration. […] The tripeptide substrate and trypsin at 0.05 μM final concentration were diluted in assay buffer at 6 fold their final concentration. The final enzyme concentrations used in these assays were 3.3 ng/ml (HDAC1), 0.2 ng/ml (HDAC2), 0.08 ng/ml (HDAC3) and 2 ng/ml (HDAC6).
(§1) Five μl of compounds and 20 μl of enzyme were added to wells of a black, opaque 384 well plate in duplicate. Enzyme and compound were incubated together at room temperature for 10 minutes. Five μ1 of substrate was added to each well, the plate was shaken for 60 seconds and placed into a Victor 2 microtiter plate reader. The development of fluorescence was monitored for 60 min and the linear rate of the reaction was calculated. The IC50 was determined using Graph Pad Prism by a four parameter curve fit.

HDAC6 = HDAC6 (Homo sapiens (Human), UniProt Q9UBN7); assay: HDAC enzyme assay, HDAC6
Experimental: (§2) Compounds for testing were diluted in DMSO to 50 fold the final concentration and a ten point three fold dilution series was made. The compounds were diluted in assay buffer (50 mM HEPES, pH 7.4, 100 mM KCl, 0.001% Tween-20, 0.05% BSA, 20 μM TCEP) to 6 fold their final concentration. The HDAC enzymes (purchased from BPS Biosciences) were diluted to 1.5 fold their final concentration in assay buffer. The tripeptide substrate and trypsin at 0.05 μM final concentration were diluted in assay buffer at 6 fold their final concentration. The final enzyme concentrations used in these assays were 3.3 ng/ml (HDAC1), 0.2 ng/ml (HDAC2), 0.08 ng/ml (HDAC3) and 2 ng/ml (HDAC6). The final substrate concentrations used were 16 μM (HDAC1), 10 μM (HDAC2), 17 μM (HDAC3) and 14 μM (HDAC6).
as §1, with “fit. The IC50 values obtained for several of the compounds of this invention are found in Table 1.” for “fit.”

HDAC1 = HDAC1 (Homo sapiens (Human), UniProt Q13547); assay: HDAC enzyme assay, HDAC1
Experimental: as §2, §1

HDAC2 = HDAC2 (Homo sapiens (Human), UniProt Q92769); assay: HDAC enzyme assay, HDAC2
Experimental: as §2, §1

HDAC2, sequence (Q92769 whole entry): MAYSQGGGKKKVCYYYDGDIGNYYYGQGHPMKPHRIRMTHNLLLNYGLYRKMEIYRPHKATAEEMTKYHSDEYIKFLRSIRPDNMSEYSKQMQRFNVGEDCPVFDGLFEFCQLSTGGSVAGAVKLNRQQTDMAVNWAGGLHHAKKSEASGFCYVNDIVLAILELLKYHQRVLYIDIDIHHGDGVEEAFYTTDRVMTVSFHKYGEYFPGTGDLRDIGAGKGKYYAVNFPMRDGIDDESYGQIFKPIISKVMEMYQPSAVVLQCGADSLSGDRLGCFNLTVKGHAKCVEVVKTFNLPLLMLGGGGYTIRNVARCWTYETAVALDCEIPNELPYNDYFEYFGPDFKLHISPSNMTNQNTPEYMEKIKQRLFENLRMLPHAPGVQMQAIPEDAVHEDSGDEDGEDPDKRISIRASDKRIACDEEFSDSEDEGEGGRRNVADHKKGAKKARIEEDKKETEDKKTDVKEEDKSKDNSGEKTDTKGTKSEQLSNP
HDAC6, sequence (Q9UBN7 whole entry): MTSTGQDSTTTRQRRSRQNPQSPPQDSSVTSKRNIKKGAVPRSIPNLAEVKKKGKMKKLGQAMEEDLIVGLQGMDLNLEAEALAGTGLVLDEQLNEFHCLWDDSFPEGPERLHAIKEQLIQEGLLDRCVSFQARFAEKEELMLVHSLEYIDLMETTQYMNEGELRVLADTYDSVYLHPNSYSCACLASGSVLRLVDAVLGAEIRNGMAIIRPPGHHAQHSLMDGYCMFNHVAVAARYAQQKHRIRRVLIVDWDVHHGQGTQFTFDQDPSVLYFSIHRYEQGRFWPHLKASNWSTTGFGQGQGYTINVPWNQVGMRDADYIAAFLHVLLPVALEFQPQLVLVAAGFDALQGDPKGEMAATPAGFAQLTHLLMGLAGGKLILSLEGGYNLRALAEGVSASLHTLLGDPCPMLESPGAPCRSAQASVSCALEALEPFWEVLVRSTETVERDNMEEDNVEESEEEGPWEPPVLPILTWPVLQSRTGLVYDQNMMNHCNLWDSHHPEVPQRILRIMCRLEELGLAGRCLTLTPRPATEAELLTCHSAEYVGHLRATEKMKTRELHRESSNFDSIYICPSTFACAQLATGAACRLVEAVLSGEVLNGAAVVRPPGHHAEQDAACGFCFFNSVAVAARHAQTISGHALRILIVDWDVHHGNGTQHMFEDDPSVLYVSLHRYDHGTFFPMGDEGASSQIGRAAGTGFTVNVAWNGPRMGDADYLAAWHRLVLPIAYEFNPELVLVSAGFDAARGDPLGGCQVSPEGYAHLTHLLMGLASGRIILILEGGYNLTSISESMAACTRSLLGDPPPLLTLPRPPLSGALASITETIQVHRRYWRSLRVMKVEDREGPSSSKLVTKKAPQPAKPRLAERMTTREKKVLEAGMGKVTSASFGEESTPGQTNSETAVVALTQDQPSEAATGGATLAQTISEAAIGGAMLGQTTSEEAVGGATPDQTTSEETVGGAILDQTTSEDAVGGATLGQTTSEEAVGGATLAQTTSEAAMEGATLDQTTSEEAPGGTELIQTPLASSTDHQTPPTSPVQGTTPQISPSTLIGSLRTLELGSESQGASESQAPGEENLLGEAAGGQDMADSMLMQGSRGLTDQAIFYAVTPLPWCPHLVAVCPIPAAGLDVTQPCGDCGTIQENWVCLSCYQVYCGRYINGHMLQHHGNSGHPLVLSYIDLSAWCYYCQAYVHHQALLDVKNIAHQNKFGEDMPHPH
HDAC1, sequence (Q13547 whole entry): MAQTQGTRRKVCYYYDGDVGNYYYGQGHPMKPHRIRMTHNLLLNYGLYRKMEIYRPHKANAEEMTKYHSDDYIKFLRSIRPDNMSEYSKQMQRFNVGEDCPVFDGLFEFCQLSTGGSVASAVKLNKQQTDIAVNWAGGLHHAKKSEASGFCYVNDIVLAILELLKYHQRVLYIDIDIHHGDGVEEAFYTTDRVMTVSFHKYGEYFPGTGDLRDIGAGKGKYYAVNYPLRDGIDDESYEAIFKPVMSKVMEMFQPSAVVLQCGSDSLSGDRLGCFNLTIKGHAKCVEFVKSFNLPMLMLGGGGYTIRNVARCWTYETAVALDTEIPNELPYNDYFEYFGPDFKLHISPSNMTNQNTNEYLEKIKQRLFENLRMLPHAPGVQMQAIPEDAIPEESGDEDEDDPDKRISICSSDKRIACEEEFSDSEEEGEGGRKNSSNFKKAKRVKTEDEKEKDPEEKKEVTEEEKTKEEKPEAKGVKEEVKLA
HDAC3, sequence (O15379 whole entry): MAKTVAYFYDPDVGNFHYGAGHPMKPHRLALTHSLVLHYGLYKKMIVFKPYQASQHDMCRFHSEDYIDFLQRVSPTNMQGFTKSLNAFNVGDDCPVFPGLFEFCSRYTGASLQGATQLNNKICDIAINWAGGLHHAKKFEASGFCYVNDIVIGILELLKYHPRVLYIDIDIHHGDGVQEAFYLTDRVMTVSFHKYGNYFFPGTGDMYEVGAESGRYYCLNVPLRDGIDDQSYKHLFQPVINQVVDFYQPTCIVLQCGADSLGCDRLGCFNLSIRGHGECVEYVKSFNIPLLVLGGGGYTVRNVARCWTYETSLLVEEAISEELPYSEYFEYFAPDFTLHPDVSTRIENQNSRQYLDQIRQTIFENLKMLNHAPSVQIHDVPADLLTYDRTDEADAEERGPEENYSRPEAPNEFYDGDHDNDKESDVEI
HDAC3, sequence (Q9Y618 395-489 partner): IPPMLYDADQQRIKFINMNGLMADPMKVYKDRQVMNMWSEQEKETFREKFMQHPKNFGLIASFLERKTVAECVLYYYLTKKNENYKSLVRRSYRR

## CC(C)[C@@H](C(=O)N1CCC(Nc2ncc(C(=O)NO)cn2)(c2ccccc2)CC1)c1ccccc1 (stereo in doubt) [Compound 025, N-hydroxy-2-((1-(3-methyl-2-phenylbutanoyl)-4-phenylpiperidin-4-yl)amino)pyrimidine-5-carboxamide]
HDAC3
  IC50: 84 nM
HDAC6
  IC50: 13 nM
HDAC1
  IC50: 20 nM
HDAC2
  IC50: 18 nM

## CC(C)[C@H](C(=O)N1CCC(Nc2ncc(C(=O)NO)cn2)(c2ccccc2)CC1)c1ccccc1 (stereo in doubt) [Compound 026, N-hydroxy-2-((1-(3-methyl-2-phenylbutanoyl)-4-phenylpiperidin-4-yl)amino)pyrimidine-5-carboxamide]
HDAC3
  IC50: 1100 nM
HDAC6
  IC50: 5 nM
HDAC1
  IC50: 206 nM
HDAC2
  IC50: 173 nM

## CC(C)C[C@H](C(=O)N1CCC(Nc2ncc(C(=O)NO)cn2)(c2ccccc2)CC1)c1ccccc1 (stereo in doubt) [Compound 029, N-hydroxy-2-((1-(4-methyl-2-phenylpentanoyl)-4-phenylpiperidin-4-yl)amino)pyrimidine-5-carboxamide]
HDAC3
  IC50: 914 nM
HDAC6
  IC50: 11 nM
HDAC1
  IC50: 102 nM
HDAC2
  IC50: 93 nM

## CC(C)C[C@@H](C(=O)N1CCC(Nc2ncc(C(=O)NO)cn2)(c2ccccc2)CC1)c1ccccc1 (stereo in doubt) [Compound 030, N-hydroxy-2-((1-(4-methyl-2-phenylpentanoyl)-4-phenylpiperidin-4-yl)amino)pyrimidine-5-carboxamide]
HDAC3
  IC50: 114 nM
HDAC6
  IC50: 12 nM
HDAC1
  IC50: 23 nM
HDAC2
  IC50: 22 nM

## O=C(NO)c1cnc(NC2(c3ccccc3)CCN(C(=O)OCc3ccccc3)CC2)nc1 [Compound 002, benzyl 4-((5-(hydroxycarbamoyl)pyrimidin-2-yl)amino)-4-phenylpiperidine-1-carboxylate]
HDAC3
  IC50: 1640 nM
HDAC6
  IC50: 2.6 nM
HDAC1
  IC50: 1010 nM
HDAC2
  IC50: 983 nM

## CC(=O)N1CCC(Nc2ncc(C(=O)NO)cn2)(c2ccccc2)CC1 [Compound 003, 2-((1-acetyl-4-phenylpiperidin-4-yl)amino)-N-hydroxypyrimidine-5-carboxamide]
HDAC3
  IC50: 840 nM
HDAC6
  IC50: 1.6 nM
HDAC1
  IC50: 346 nM
HDAC2
  IC50: 254 nM

## CCOC(=O)N1CCC(Nc2ncc(C(=O)NO)cn2)(c2ccccc2)CC1 [Compound 004, ethyl 4-((5-(hydroxycarbamoyl)pyrimidin-2-yl)amino)-4-phenylpiperidine-1-carboxylate]
HDAC3
  IC50: 1000 nM
HDAC6
  IC50: 2.9 nM
HDAC1
  IC50: 275 nM
HDAC2
  IC50: 321 nM

## CC(=O)N1CCC(Nc2ncc(C(=O)NO)cn2)(C(C)C)CC1 [Compound 005, 2-((1-acetyl-4-isopropylpiperidin-4-yl)amino)-N-hydroxypyrimidine-5-carboxamide]
HDAC3
  IC50: 8180 nM
HDAC6
  IC50: 5.9 nM
HDAC1
  IC50: 1830 nM
HDAC2
  IC50: 2390 nM

## CCOC(=O)N1CCC(Nc2ncc(C(=O)NO)cn2)(C(C)C)CC1 [Compound 006, ethyl 4-((5-(hydroxycarbamoyl)pyrimidin-2-yl)amino)-4-isopropylpiperidine-1-carboxylate]
HDAC3
  IC50: 3780 nM
HDAC6
  IC50: 4 nM
HDAC1
  IC50: 697 nM
HDAC2
  IC50: 809 nM

## CC(C)C1(Nc2ncc(C(=O)NO)cn2)CCN(C(=O)OCc2ccccc2)CC1 [Compound 007, benzyl 4-((5-(hydroxycarbamoyl)pyrimidin-2-yl)amino)-4-isopropylpiperidine-1-carboxylate]
HDAC3
  IC50: 879 nM
HDAC6
  IC50: 5.1 nM
HDAC1
  IC50: 119 nM
HDAC2
  IC50: 121 nM

## COc1ccc(NC(=O)N2CCC(Nc3ncc(C(=O)NO)cn3)(c3ccccc3)CC2)cc1 [Compound 008, N-hydroxy-2-((1-((4-methoxyphenyl)carbamoyl)-4-phenylpiperidin-4-yl)amino)pyrimidine-5-carboxamide]
HDAC3
  IC50: 546 nM
HDAC6
  IC50: 1.5 nM
HDAC1
  IC50: 21 nM
HDAC2
  IC50: 24 nM

## O=C(NO)c1cnc(NC2(c3ccccc3)CCN(c3ccccc3)CC2)nc1 [Compound 009, 2-((1,4-diphenylpiperidin-4-yl)amino)-N-hydroxypyrimidine-5-carboxamide]
HDAC3
  IC50: 1780 nM
HDAC6
  IC50: 2.1 nM
HDAC1
  IC50: 356 nM
HDAC2
  IC50: 380 nM

## O=C(NO)c1cnc(NC2(c3ccccc3)CCN(C(=O)Nc3ccccc3F)CC2)nc1 [Compound 010, 2-((1-((2-fluorophenyl)carbamoyl)-4-phenylpiperidin-4-yl)amino)-N-hydroxypyrimidine-5-carboxamide]
HDAC3
  IC50: 824 nM
HDAC6
  IC50: 1.7 nM
HDAC1
  IC50: 18 nM
HDAC2
  IC50: 27 nM

## CN(C(=O)N1CCC(Nc2ncc(C(=O)NO)cn2)(c2ccccc2)CC1)c1ccccc1 [Compound 012, N-hydroxy-2-((1-(methyl(phenyl)carbamoyl)-4-phenylpiperidin-4-yl)amino)pyrimidine-5-carboxamide]
HDAC3
  IC50: 1620 nM
HDAC6
  IC50: 2.2 nM
HDAC1
  IC50: 266 nM
HDAC2
  IC50: 377 nM

## O=C(NO)c1cnc(NC2(c3ccccc3)CCN(C(=O)Nc3cccc(F)c3)CC2)nc1 [Compound 013, 2-((1-((3-fluorophenyl)carbamoyl)-4-phenylpiperidin-4-yl)amino)-N-hydroxypyrimidine-5-carboxamide]
HDAC3
  IC50: 1080 nM
HDAC6
  IC50: 2.5 nM
HDAC1
  IC50: 50 nM
HDAC2
  IC50: 74 nM

## O=C(NO)c1cnc(NC2(c3ccccc3)CCN(C(=O)Nc3ccc(F)cc3)CC2)nc1 [Compound 014, 2-((1-((4-fluorophenyl)carbamoyl)-4-phenylpiperidin-4-yl)amino)-N-hydroxypyrimidine-5-carboxamide]
HDAC3
  IC50: 1070 nM
HDAC6
  IC50: 2 nM
HDAC1
  IC50: 33 nM
HDAC2
  IC50: 43 nM

## Cc1ccc(NC(=O)N2CCC(Nc3ncc(C(=O)NO)cn3)(c3ccccc3)CC2)cc1 [Compound 015, N-hydroxy-2-((4-phenyl-1-(p-tolylcarbamoyl)piperidin-4-yl)amino)pyrimidine-5-carboxamide]
HDAC3
  IC50: 693 nM
HDAC6
  IC50: 2 nM
HDAC1
  IC50: 34 nM
HDAC2
  IC50: 46 nM

## CNC(=O)N1CCC(Nc2ncc(C(=O)NO)cn2)(c2ccccc2)CC1 [Compound 016, N-hydroxy-2-((1-(methylcarbamoyl)-4-phenylpiperidin-4-yl)amino)pyrimidine-5-carboxamide]
HDAC3
  IC50: 987 nM
HDAC6
  IC50: 1.7 nM
HDAC1
  IC50: 170 nM
HDAC2
  IC50: 207 nM

## O=C(NO)c1cnc(NC2(c3ccccc3)CCN(C(=S)Nc3ccccc3)CC2)nc1 [Compound 017, N-hydroxy-2-((4-phenyl-1-(phenylcarbamothioyl)piperidin-4-yl)amino)pyrimidine-5-carboxamide]
HDAC3
  IC50: 111 nM
HDAC6
  IC50: 2.4 nM
HDAC1
  IC50: 5.9 nM
HDAC2
  IC50: 5.2 nM

## O=C(NO)c1cnc(NC2(c3ccccc3)CCN(S(=O)(=O)c3cccc(F)c3)CC2)nc1 [Compound 018, 2-((1-((3-fluorophenyl)sulfonyl)-4-phenylpiperidin-4-yl)amino)-N-hydroxypyrimidine-5-carboxamide]
HDAC3
  IC50: 2480 nM
HDAC6
  IC50: 5.1 nM
HDAC1
  IC50: 551 nM
HDAC2
  IC50: 644 nM

## O=C(NO)c1cnc(NC2(c3ccccc3)CCN(S(=O)(=O)c3ccc(Cl)cc3)CC2)nc1 [Compound 019, 2-((1-((4-chlorophenyl)sulfonyl)-4-phenylpiperidin-4-yl)amino)-N-hydroxypyrimidine-5-carboxamide]
HDAC3
  IC50: 3190 nM
HDAC6
  IC50: 5 nM
HDAC1
  IC50: 854 nM
HDAC2
  IC50: 987 nM

## Cc1ccccc1S(=O)(=O)N1CCC(Nc2ncc(C(=O)NO)cn2)(c2ccccc2)CC1 [Compound 020, N-hydroxy-2-((4-phenyl-1-(o-tolylsulfonyl)piperidin-4-yl)amino)pyrimidine-5-carboxamide]
HDAC3
  IC50: 1980 nM
HDAC6
  IC50: 4.5 nM
HDAC1
  IC50: 372 nM
HDAC2
  IC50: 423 nM

## Cc1ccc(S(=O)(=O)N2CCC(Nc3ncc(C(=O)NO)cn3)(c3ccccc3)CC2)cc1 [Compound 021, N-hydroxy-2-((4-phenyl-1-tosylpiperidin-4-yl)amino)pyrimidine-5-carboxamide]
HDAC3
  IC50: 2510 nM
HDAC6
  IC50: 4.5 nM
HDAC1
  IC50: 570 nM
HDAC2
  IC50: 642 nM

## O=C(NO)c1cnc(NC2(c3ccccc3)CCN(S(=O)(=O)c3ccc(C(F)(F)F)cc3)CC2)nc1 [Compound 022, N-hydroxy-2-((4-phenyl-1-((4-(trifluoromethyl)phenyl)sulfonyl)piperidin-4-yl)amino)pyrimidine-5-carboxamide]
HDAC3
  IC50: 2700 nM
HDAC6
  IC50: 7.3 nM
HDAC1
  IC50: 704 nM
HDAC2
  IC50: 782 nM

Source: patent publication US9278963B2, “Pyrimidine hydroxy amide compounds as histone deacetylase inhibitors” (Acetylon Pharmaceuticals, Inc., priority 2013, dated 2016)
